Source: ChEMBL document CHEMBL3885861, “Open TG-GATES”

Organism: Rattus norvegicus
Experiment: Open TG-GATES - Regimen: Daily Repeat
Assay type: toxicity, organism-based, Sprague-Dawley
Parameters: regimen Daily Repeat, gender Male, age 6 weeks
Conditions: in vivo, po, route gavage; for APTT / Bas / Eos / Fbg / Hb / Ht / Lym / MCH / MCHC / MCV / Mono / Neu / PT / Plat / RBC / Ret / WBC: tissue Blood; for KIDNEY_L / KIDNEY_R / KIDNEY_TOTAL: tissue Kidney; for LIVER: tissue Liver; for ALP / ALT / AST / BUN / CRE / DBIL / GLC / IP / K / LDH / Na / PL / RALB / TBIL / TC / TP / gamma-GTP / TG: tissue Plasma
[1] = 0 mg/kg, 72 h, dose level Control, time 3 day
[2] = 0 mg/kg, […], dose level Control, time 7 day
[3] = 0 mg/kg, […], dose level Control, time 14 day
[4] = 0 mg/kg, […], dose level Control, time 28 day
[5] = 30 mg/kg, 72 h, dose level Low, time 3 day
[6] = 30 mg/kg, […], dose level Low, time 7 day
[7] = 30 mg/kg, […], dose level Low, time 14 day
[8] = 30 mg/kg, […], dose level Low, time 28 day

Q: Which results are given for Clc1ccccc1CN1CCc2sccc2C1 [TICLOPIDINE]?
A: TERMINAL_BW [1]: 230.2 g; APTT [1]: 20.4 s; Bas [1]: 0.6%; Eos [1]: 1%; Fbg [1]: 211 mg/dL; Hb [1]: 13.6 g/dL; Ht [1]: 38.2%; Lym [1]: 77.6%; MCH [1]: 21.9 pg; MCHC [1]: 35.8%; MCV [1]: 61.3 fL; Mono [1]: 3.2%; Neu [1]: 17%; PT [1]: 11.7 s; Plat [1]: 127.8 x10_4/uL; RBC [1]: 622.6 x10_4/ul; Ret [1]: 6.2%; WBC [1]: 129 x10_2/uL; KIDNEY_L [1]: 1.1 g; KIDNEY_R [1]: 1 g; KIDNEY_TOTAL [1]: 2.1 g; LIVER [1]: 11.1 g; ALP [1]: 1033.4 IU/L; ALT [1]: 42.8 IU/L; AST [1]: 70.2 IU/L; BUN [1]: 17 mg/dL; CRE [1]: 0.4 mg/dL; DBIL [1]: 0.07 mg/dL; GLC [1]: 205.4 mg/dL; IP [1]: 8.6 mg/dL; K [1]: 4.4 meq/L; LDH [1]: 128.8 IU/L; Na [1]: 141.6 meq/L; PL [1]: 148.6 mg/dL; RALB [1]: 3.4 g/dL; TBIL [1]: 0.1 mg/dL; TC [1]: 69.8 mg/dL; TP [1]: 5.5 g/dL; gamma-GTP [1]: 1.2 IU/L; TERMINAL_BW [2]: 252.6 g; TERMINAL_BW [3]: 313.6 g; TERMINAL_BW [4]: 400.8 g; APTT [2]: 20.7 s; Bas [2]: 1%; Eos [2]: 1%; Fbg [2]: 224.2 mg/dL; Hb [2]: 14 g/dL; Ht [2]: 38.4%; Lym [2]: 81.6%; MCH [2]: 21.3 pg; MCHC [2]: 36.4%; MCV [2]: 58.5 fL; Mono [2]: 2.4%; Neu [2]: 13.4%; PT [2]: 11.4 s; Plat [2]: 127 x10_4/uL; RBC [2]: 658 x10_4/ul; Ret [2]: 4.7%; WBC [2]: 103.5 x10_2/uL; APTT [3]: 20.6 s; Bas [3]: 1%; Eos [3]: 0.8%; Fbg [3]: 220.6 mg/dL; Hb [3]: 14.3 g/dL; Ht [3]: 39.5%; Lym [3]: 78.8%; MCH [3]: 21.1 pg; MCHC [3]: 36.2%; MCV [3]: 58.1 fL; Mono [3]: 2.8%; Neu [3]: 16%; PT [3]: 11.6 s; Plat [3]: 116.1 x10_4/uL; RBC [3]: 681.2 x10_4/ul; Ret [3]: 4.3%; WBC [3]: 121.8 x10_2/uL; APTT [4]: 18.1 s; Bas [4]: 0.8%; Eos [4]: 1%; Fbg [4]: 233.4 mg/dL; Hb [4]: 15.5 g/dL; Ht [4]: 41.4%; Lym [4]: 80.2%; MCH [4]: 20.9 pg; MCHC [4]: 37.5%; MCV [4]: 55.7 fL; Mono [4]: 2%; Neu [4]: 15.4%; PT [4]: 11.5 s; Plat [4]: 106.8 x10_4/uL; RBC [4]: 743.4 x10_4/ul; Ret [4]: 2.7%; WBC [4]: 97 x10_2/uL; KIDNEY_L [2]: 1.1 g; KIDNEY_R [2]: 1 g; KIDNEY_TOTAL [2]: 2.1 g; KIDNEY_L [3]: 1.2 g; KIDNEY_R [3]: 1.2 g; KIDNEY_TOTAL [3]: 2.4 g; KIDNEY_L [4]: 1.4 g; KIDNEY_R [4]: 1.3 g; KIDNEY_TOTAL [4]: 2.7 g; LIVER [2]: 11.3 g; LIVER [3]: 13.2 g; LIVER [4]: 16.3 g; ALP [2]: 1176 IU/L; ALT [2]: 44.8 IU/L; AST [2]: 81.6 IU/L; BUN [2]: 15 mg/dL; CRE [2]: 0.4 mg/dL; DBIL [2]: 0.066 mg/dL; GLC [2]: 195.4 mg/dL; IP [2]: 6.9 mg/dL; K [2]: 3.9 meq/L; LDH [2]: 144.6 IU/L; Na [2]: 141.4 meq/L; PL [2]: 153.4 mg/dL; RALB [2]: 3.4 g/dL; TBIL [2]: 0.1 mg/dL; TC [2]: 77.8 mg/dL; TG [2]: 81.6 mg/dL; TP [2]: 5.7 g/dL; gamma-GTP [2]: 1.2 IU/L; ALP [3]: 840.4 IU/L; ALT [3]: 33.6 IU/L; AST [3]: 70.2 IU/L; BUN [3]: 17.2 mg/dL; CRE [3]: 0.4 mg/dL; DBIL [3]: 0.056 mg/dL; GLC [3]: 215.8 mg/dL; IP [3]: 7.5 mg/dL; K [3]: 4.4 meq/L; LDH [3]: 155.2 IU/L; Na [3]: 142 meq/L; PL [3]: 138 mg/dL; RALB [3]: 3.4 g/dL; TBIL [3]: 0.098 mg/dL; TC [3]: 65.2 mg/dL; TG [3]: 114 mg/dL; TP [3]: 5.6 g/dL; gamma-GTP [3]: 1.2 IU/L; ALP [4]: 742.8 IU/L; ALT [4]: 29.6 IU/L; AST [4]: 58.6 IU/L; BUN [4]: 18.2 mg/dL; CRE [4]: 0.5 mg/dL; DBIL [4]: 0.068 mg/dL; GLC [4]: 214.4 mg/dL; IP [4]: 6.7 mg/dL; K [4]: 3.8 meq/L; LDH [4]: 168.2 IU/L; Na [4]: 141.6 meq/L; PL [4]: 133.2 mg/dL; RALB [4]: 3.6 g/dL; TBIL [4]: 0.1 mg/dL; TC [4]: 63 mg/dL; TG [4]: 126.8 mg/dL; TP [4]: 6.1 g/dL; gamma-GTP [4]: 0.8 IU/L; TERMINAL_BW [5]: 232 g; APTT [5]: 19.7 s; Bas [5]: 0.6%; Eos [5]: 1%; Fbg [5]: 223.6 mg/dL; Hb [5]: 13.6 g/dL; Ht [5]: 38.5%; Lym [5]: 74.2%; MCH [5]: 21.5 pg; MCHC [5]: 35.2%; MCV [5]: 61.1 fL; Mono [5]: 3%; Neu [5]: 20.2%; PT [5]: 11.6 s; Plat [5]: 129 x10_4/uL; RBC [5]: 631.6 x10_4/ul; Ret [5]: 6.2%; WBC [5]: 88 x10_2/uL; KIDNEY_L [5]: 1 g; KIDNEY_R [5]: 1 g; KIDNEY_TOTAL [5]: 2 g; LIVER [5]: 11.3 g; ALP [5]: 1106 IU/L; ALT [5]: 36.4 IU/L; AST [5]: 67.8 IU/L; BUN [5]: 14.8 mg/dL; CRE [5]: 0.4 mg/dL; DBIL [5]: 0.072 mg/dL; GLC [5]: 212 mg/dL; IP [5]: 7.5 mg/dL; K [5]: 4.1 meq/L; LDH [5]: 163.6 IU/L; Na [5]: 142 meq/L; PL [5]: 155.8 mg/dL; RALB [5]: 3.4 g/dL; TBIL [5]: 0.1 mg/dL; TC [5]: 75.4 mg/dL; TG [5]: 100.8 mg/dL; TP [5]: 5.6 g/dL; gamma-GTP [5]: 1 IU/L; TERMINAL_BW [6]: 262.3 g; TERMINAL_BW [7]: 314 g; TERMINAL_BW [8]: 386.1 g; APTT [6]: 18.1 s; Bas [6]: 0.8%; Eos [6]: 1%; Fbg [6]: 231.2 mg/dL; Hb [6]: 14.1 g/dL; Ht [6]: 39.3%; Lym [6]: 76%; MCH [6]: 21.3 pg; MCHC [6]: 35.7%; MCV [6]: 59.7 fL; Mono [6]: 3.2%; Neu [6]: 18.2%; PT [6]: 11.2 s; Plat [6]: 117.8 x10_4/uL; RBC [6]: 658.6 x10_4/ul; Ret [6]: 5.8%; WBC [6]: 104.1 x10_2/uL; APTT [7]: 21.4 s; Bas [7]: 0.8%; Eos [7]: 0.8%; Fbg [7]: 221.2 mg/dL; Hb [7]: 14.1 g/dL; Ht [7]: 39.2%; Lym [7]: 78.6%; MCH [7]: 21.2 pg; MCHC [7]: 36.1%; MCV [7]: 58.7 fL; Mono [7]: 2.6%; Neu [7]: 16.8%; PT [7]: 11.6 s; Plat [7]: 116.9 x10_4/uL; RBC [7]: 668.2 x10_4/ul; Ret [7]: 4.7%; WBC [7]: 124.8 x10_2/uL; APTT [8]: 18 s; Bas [8]: 0.6%; Eos [8]: 1.2%; Fbg [8]: 223.6 mg/dL; Hb [8]: 14.9 g/dL; Ht [8]: 40.4%; Lym [8]: 82%; MCH [8]: 19.9 pg; MCHC [8]: 37%; MCV [8]: 53.7 fL; Mono [8]: 2%; Neu [8]: 13.8%; PT [8]: 11.7 s; Plat [8]: 106 x10_4/uL; RBC [8]: 752.8 x10_4/ul; Ret [8]: 2.9%; WBC [8]: 115.9 x10_2/uL; KIDNEY_L [6]: 1.1 g; KIDNEY_R [6]: 1.1 g; KIDNEY_TOTAL [6]: 2.2 g; KIDNEY_L [7]: 1.3 g; KIDNEY_R [7]: 1.2 g; KIDNEY_TOTAL [7]: 2.5 g; KIDNEY_L [8]: 1.3 g; KIDNEY_R [8]: 1.3 g; KIDNEY_TOTAL [8]: 2.7 g; LIVER [6]: 12.2 g; LIVER [7]: 14.3 g; LIVER [8]: 15.6 g; ALP [6]: 861.2 IU/L; ALT [6]: 38.4 IU/L; AST [6]: 71.8 IU/L; BUN [6]: 15.4 mg/dL; CRE [6]: 0.4 mg/dL; DBIL [6]: 0.068 mg/dL; GLC [6]: 204.4 mg/dL; IP [6]: 7.6 mg/dL; K [6]: 3.9 meq/L; LDH [6]: 167.6 IU/L; Na [6]: 142.4 meq/L; PL [6]: 150.8 mg/dL; RALB [6]: 3.5 g/dL; TBIL [6]: 0.1 mg/dL; TC [6]: 78.4 mg/dL; TP [6]: 5.7 g/dL; gamma-GTP [6]: 1 IU/L; ALP [7]: 887.6 IU/L; ALT [7]: 36.4 IU/L; AST [7]: 68.8 IU/L; BUN [7]: 16.8 mg/dL; CRE [7]: 0.4 mg/dL; DBIL [7]: 0.058 mg/dL; GLC [7]: 225.4 mg/dL; IP [7]: 7.7 mg/dL; K [7]: 4.2 meq/L; LDH [7]: 174.2 IU/L; Na [7]: 142.2 meq/L; PL [7]: 154.8 mg/dL; RALB [7]: 3.3 g/dL; TBIL [7]: 0.1 mg/dL; TC [7]: 74.4 mg/dL; TG [7]: 120.6 mg/dL; TP [7]: 5.7 g/dL; gamma-GTP [7]: 1 IU/L; ALP [8]: 647.4 IU/L; ALT [8]: 37 IU/L; AST [8]: 64.2 IU/L; BUN [8]: 15.8 mg/dL; CRE [8]: 0.5 mg/dL; DBIL [8]: 0.07 mg/dL; GLC [8]: 200.8 mg/dL; IP [8]: 7.2 mg/dL; K [8]: 3.8 meq/L; LDH [8]: 145 IU/L; Na [8]: 142 meq/L; PL [8]: 158.4 mg/dL; RALB [8]: 3.5 g/dL; TBIL [8]: 0.1 mg/dL; TC [8]: 78.4 mg/dL; TG [8]: 133.8 mg/dL; TP [8]: 5.8 g/dL; gamma-GTP [8]: 1 IU/L
